As usually defined, the IC50 is the concentration at which inhibition is half-maximal.

A value given as a limit tells only on which side of the number the result lay.

The target of experiment [1] is human FGFR3 enzyme (Homo sapiens (Human), UniProt P22607). Description: Inhibitory activity against the FGFR3 enzyme (phosphorylation of biotinylated peptide, time-resolved fluorescence).
Excerpt: Inhibitory Activity Against the FGFR3 Enzyme
(§1) Phosphorylated biotinylated peptides were detected by the time-resolved fluorescent measurement using a europium cryptate-linked anti-phophotyrosine antibody and a streptavidin to which XL665, a derivative of allophycocyanine, is linked.
Experiment [2] addresses human FGFR1 enzyme (Homo sapiens (Human), UniProt P11362). Description: Inhibitory activity against the FGFR1 enzyme (phosphorylation of biotinylated peptide, time-resolved fluorescence).
Excerpt: Inhibitory Activity Against the FGFR1 Enzyme
as §1
Experiment [3] concerns the target human FGFR2 enzyme (Homo sapiens (Human), UniProt P21802). Put plainly: Inhibitory activity against the FGFR2 enzyme (phosphorylation of biotinylated peptide, time-resolved fluorescence).
Excerpt: as §1

Chain of human FGFR3 enzyme (P22607 23-806): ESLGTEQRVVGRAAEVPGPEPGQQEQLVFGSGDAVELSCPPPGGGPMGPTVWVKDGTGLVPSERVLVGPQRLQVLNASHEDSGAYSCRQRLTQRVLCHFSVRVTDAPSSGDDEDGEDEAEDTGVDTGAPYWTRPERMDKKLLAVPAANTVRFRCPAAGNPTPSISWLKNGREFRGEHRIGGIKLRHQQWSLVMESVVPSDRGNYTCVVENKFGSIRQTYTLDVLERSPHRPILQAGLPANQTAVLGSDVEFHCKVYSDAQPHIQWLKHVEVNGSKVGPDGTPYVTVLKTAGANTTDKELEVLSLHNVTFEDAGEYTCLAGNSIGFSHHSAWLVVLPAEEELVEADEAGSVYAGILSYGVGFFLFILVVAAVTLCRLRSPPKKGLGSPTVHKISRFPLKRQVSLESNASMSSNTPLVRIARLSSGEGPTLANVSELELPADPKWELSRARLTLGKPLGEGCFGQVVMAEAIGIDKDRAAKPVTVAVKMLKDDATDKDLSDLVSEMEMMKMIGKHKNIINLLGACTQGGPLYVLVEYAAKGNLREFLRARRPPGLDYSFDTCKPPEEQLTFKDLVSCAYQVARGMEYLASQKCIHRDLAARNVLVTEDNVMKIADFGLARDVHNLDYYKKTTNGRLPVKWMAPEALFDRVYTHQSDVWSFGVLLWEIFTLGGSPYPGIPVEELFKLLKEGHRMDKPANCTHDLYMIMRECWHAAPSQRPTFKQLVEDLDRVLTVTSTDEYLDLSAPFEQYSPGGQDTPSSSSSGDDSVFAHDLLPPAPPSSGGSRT
Chain of human FGFR1 enzyme (P11362 22-822): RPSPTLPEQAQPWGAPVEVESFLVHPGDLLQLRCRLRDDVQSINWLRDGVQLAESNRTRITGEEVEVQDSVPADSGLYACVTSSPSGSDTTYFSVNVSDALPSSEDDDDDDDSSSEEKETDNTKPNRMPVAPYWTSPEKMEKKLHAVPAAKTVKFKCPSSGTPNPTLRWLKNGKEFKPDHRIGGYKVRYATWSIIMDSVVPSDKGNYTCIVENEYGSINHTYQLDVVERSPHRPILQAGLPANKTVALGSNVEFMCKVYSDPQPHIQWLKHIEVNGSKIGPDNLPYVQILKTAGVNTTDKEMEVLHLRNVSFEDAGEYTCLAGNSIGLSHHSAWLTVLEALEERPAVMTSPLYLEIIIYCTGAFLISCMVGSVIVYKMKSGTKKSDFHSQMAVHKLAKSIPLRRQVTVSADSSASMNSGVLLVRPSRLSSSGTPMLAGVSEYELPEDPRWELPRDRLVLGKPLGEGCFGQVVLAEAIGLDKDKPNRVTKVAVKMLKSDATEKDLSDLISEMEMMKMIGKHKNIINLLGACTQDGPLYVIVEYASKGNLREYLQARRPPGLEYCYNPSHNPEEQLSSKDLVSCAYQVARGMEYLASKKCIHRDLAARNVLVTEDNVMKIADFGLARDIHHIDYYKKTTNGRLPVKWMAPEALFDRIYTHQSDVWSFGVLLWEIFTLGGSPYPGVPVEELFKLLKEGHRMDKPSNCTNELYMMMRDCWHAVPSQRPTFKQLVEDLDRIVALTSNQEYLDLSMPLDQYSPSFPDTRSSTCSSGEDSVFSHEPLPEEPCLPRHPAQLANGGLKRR
Chain of human FGFR2 enzyme (P21802 22-821): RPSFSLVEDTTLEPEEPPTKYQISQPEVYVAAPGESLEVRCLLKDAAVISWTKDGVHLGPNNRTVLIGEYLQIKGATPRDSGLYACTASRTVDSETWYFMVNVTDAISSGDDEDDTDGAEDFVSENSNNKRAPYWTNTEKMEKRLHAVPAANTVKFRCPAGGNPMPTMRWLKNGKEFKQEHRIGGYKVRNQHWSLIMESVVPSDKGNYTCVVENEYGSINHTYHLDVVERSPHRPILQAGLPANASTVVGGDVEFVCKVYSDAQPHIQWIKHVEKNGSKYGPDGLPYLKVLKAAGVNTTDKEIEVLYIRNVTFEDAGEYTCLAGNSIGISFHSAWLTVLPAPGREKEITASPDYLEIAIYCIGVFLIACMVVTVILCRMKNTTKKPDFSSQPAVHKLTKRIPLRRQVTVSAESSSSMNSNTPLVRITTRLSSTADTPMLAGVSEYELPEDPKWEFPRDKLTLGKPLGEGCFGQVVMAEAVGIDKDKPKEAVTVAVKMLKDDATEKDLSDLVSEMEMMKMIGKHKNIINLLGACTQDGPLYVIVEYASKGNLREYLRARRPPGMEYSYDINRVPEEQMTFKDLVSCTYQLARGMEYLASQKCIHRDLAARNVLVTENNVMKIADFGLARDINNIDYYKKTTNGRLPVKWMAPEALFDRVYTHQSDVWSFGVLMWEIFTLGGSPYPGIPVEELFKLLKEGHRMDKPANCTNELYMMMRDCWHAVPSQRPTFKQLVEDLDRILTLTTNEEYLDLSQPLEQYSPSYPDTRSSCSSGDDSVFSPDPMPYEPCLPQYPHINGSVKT

Regarding `Cc1nc2cc(-n3ncc(C(=O)c4cc5ccc(-c6ccnnc6)cc5[nH]4)c3N)ccc2[nH]1` [Example 89, [5-amino-1-(2-methyl-1H-benzimidazol-5-yl)-1H-pyrazol-4-yl]-(6-pyridazin-4-yl-1H-indol-2-yl)-methanone], the IC50 in experiment [1] was at most 0.3 µM.
For the molecule `Cc1ccnc(-c2ccc3cc(C(=O)c4cnn(-c5ccc6[nH]c(C)nc6c5)c4N)[nH]c3c2)c1` [Example 32], the IC50 in experiment [1] was at most 0.3 µM.
With `Cc1nc2cc(-n3ncc(C(=O)c4cc5cc6c(cc5[nH]4)OCO6)c3N)ccc2[nH]1` [Example 61, [5-amino-1-(2-methyl-1H-benzimidazol-5-yl)-1H-pyrazol-4-yl]-(5H-[1,3]dioxolo[4,5-f]indol-6-yl)-methanone], the IC50 in experiment [1] was at most 0.3 µM.
With `Cc1nc2cc(-n3ncc(C(=O)c4cc5ccc(-c6ccc(N7CCNCC7)nc6)cc5[nH]4)c3N)ccc2[nH]1` [Example 110, [5-amino-1-(2-methyl-1H-benzimidazol-5-yl)-1H-pyrazol-4-yl]-[6-(6-piperazin-1-yl-pyridin-3-yl)-1H-indol-2-yl]-methanone], the IC50 in experiment [2], in experiment [3] and in experiment [1] was at most 0.3 µM each time.

The record behind these values is patent US8829199B2, “Aminopyrazole derivative” (Chugai Seiyaku Kabushiki Kaisha, priority 2009, dated 2014).
